# According to patent US20080125424A1, “Derivatives of urea and related diamines, methods for their manufacture, and uses therefor” (priority 2006, published 2008):
# Target: T1, human parathyroid cell Ca2+ receptor (hPCaR) (Homo sapiens, UniProt P41180)
# T1 construct: expressed in transfected cells
# T1 sequence (P41180 20-1078): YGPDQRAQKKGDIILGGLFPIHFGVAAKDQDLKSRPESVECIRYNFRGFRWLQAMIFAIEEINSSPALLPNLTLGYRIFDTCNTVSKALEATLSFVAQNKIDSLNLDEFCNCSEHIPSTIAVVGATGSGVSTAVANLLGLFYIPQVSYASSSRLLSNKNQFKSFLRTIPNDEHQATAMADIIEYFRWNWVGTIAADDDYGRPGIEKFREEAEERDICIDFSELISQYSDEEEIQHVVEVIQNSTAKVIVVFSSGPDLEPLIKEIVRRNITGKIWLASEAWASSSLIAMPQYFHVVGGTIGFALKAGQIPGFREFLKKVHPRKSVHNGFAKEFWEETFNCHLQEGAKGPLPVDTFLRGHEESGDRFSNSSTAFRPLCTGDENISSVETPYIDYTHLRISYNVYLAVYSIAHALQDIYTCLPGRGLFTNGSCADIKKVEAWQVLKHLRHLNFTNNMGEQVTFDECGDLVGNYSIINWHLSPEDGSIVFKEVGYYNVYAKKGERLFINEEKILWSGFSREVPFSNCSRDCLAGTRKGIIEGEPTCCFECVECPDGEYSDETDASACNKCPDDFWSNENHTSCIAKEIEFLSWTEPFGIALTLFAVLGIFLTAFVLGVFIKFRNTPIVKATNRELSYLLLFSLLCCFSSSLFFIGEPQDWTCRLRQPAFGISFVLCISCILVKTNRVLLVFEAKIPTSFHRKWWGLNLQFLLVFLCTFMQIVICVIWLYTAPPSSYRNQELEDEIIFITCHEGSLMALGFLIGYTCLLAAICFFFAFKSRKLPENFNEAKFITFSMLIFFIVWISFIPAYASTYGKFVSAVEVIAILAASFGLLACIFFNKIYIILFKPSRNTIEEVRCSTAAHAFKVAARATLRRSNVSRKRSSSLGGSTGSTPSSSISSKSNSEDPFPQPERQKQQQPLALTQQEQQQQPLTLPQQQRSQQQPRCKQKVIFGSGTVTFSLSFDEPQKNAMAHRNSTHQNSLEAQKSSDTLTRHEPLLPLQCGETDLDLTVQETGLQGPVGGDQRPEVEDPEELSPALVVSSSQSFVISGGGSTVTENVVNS
# Test: [Ca2+]i fluorescence assay in HEK 293 4.0-7 cells expressing hPCaR
# Format: cell-based
# Conditions: buffer with 1 mM CaCl2
# Protocol: The activities of the compounds of the present invention on calcium receptors were measured. In one embodiment, the measurement was performed in accordance with the method described in Example 4 of Nemeth et al., PCT/US95/13704 (International Publication No. WO96/12697) herein incorporated by reference.
# A 4.0-kb NotI-HindIII fragment of the human parathyroid cell Ca^2+ receptor (hPCaR) cDNA was subcloned into the mammalian expression vector pCEP4 (Invitrogen) containing the hygromycin-resistant gene as a selectable marker. This plasmid was transfected into HEK 293 cells by calcium phosphate precipitation. Transfected cells were grown in Dulbecco's modified Eagle's medium containing 10% fetal bovine serum and hygromycin (200 μg/mL). Hygromycin-resistant colonies were subcloned and assayed for hPCaR mRNA by solution hybridization using a ^32P-labeled RNA probe complementary to the (4.0 kb) hPCaR sequence (Garrett, et al., J. Biol. Chem. 270, 12919-12925 (1995)). Clone 7 was used to assess the effects of compounds on [Ca^2+]i. This stably transfected cell line was termed HEK 293 4.0-7. For measurements of [Ca^2+]i, the cells were recovered from tissue culture flasks by brief treatment with Versene (Invitrogen; Containing 0.2 g/L EDTA.4Na in phosphate-buffered saline) and then seeded in collagen coated 384-well plates (BD Biosciences) at 20K cells per well in the growth media (same as above). Cells were grown in 37c TC incubator overnight. Then, the media was discarded and cells were loaded with 1× dye from Ca^2+ Assay Kit I (BD Biosciences) in parathyroid cell buffer (126 mM NaCl, 4 mM KCl, 1 mM MgSO4, 0.7 mM K2HPO4/KH2PO4, 20 mM HEPES.NaOH (pH 7.45)) containing 0.5% BSA and 1 mM CaCl2. Cells were loaded at room temperature for 90 minutes. Each test compound was added to the cells and the fluorescence was recorded by using excitation and emission wavelengths of 485 and 530 nm, respectively.
row,Structure (SMILES),EC50
1,"CN(C)C(=O)N1CCN(C(=O)CCCN(CCC(c2ccccc2)c2ccccc2)C(=O)Nc2nc3ccccc3s2)CC1 [Example 87, 3-(benzo[d]thiazol-2-yl)-1-(4-(4-(dimethylcarbamoyl)piperazin-1-yl)-4-oxobutyl)-1-(3,3-diphenylpropyl)urea]",< 100 nM
2,"CCOC(=O)C1CC1CNCCN(CCC(c1ccccc1)c1ccccc1)C(=O)Nc1nc2ccccc2s1 (stereo not shown) [Example 152, 2-({2-[3-Benzothiazol-2-yl-1-(3,3-diphenyl-propyl)-ureido]-ethylamino}-methyl)cyclopropanecarboxylic acid ethyl ester]",1000 to 5000 nM
3,"O=C(CCCN(CCC(c1ccccc1)c1ccccc1)C(=O)Nc1nc2ccccc2s1)N[C@H]1CCCNC1 [Example 74, (S)-3-(benzo[d]thiazol-2-yl)-1-(3,3-diphenylpropyl)-1-(4-oxo-4-(piperidin-3-ylamino)butyl)urea]",< 100 nM
4,"CS(=O)(=O)NCCN(CCC(c1ccccc1)c1ccccc1)C(=O)Nc1nc(-c2ccc(NS(C)(=O)=O)cc2)c(Cl)s1 [Example 139, 3-(5-chloro-4-(4-(methylsulfonamido)phenyl)thiazol-2-yl)-1-(3,3-diphenylpropyl)-1-(2-(methylsulfonamido)ethyl)urea]",< 100 nM
5,"NC(=O)CCN(CCC(c1ccccc1)c1ccccc1)C(=O)Nc1nc2ccccc2s1 [Example 109, 1-(3-amino-3-oxopropyl)-3-(benzo[d]thiazol-2-yl)-1-(3,3-diphenylpropyl)urea]",100 to 1000 nM
6,"CS(=O)(=O)NCCN(CCC(c1ccccc1)c1ccccc1)C(=O)Nc1nc2ccccc2s1 [Example 167, N-{2-[3-Benzothiazol-2-yl-1-(3,3-diphenyl-propyl)-ureido]-ethyl}-methanesulfonamide]",100 to 1000 nM
7,"CS(=O)(=O)Nc1ccc(-c2nc(NC(=O)N(CCCC(=O)O)CCC(c3ccccc3)c3ccccc3)sc2Cl)cc1 [Example 73, 4-(3-(5-chloro-4-(4-(methylsulfonamido)phenyl)thiazol-2-yl)-1-(3,3-diphenylpropyl)ureido)butanoic acid]",< 100 nM
8,"CC(C)(C)OC(=O)CCCN(CCC(c1ccccc1)c1ccccc1)C(=O)Nc1nc2ccccc2s1 [Example 101, tert-butyl 4-(3-(benzo[d]thiazol-2-yl)-1-(3,3-diphenylpropyl)ureido)butanoate]",100 to 1000 nM
9,"CCCS(=O)(=O)NCCN(CCC(c1ccccc1)c1ccccc1)C(=O)Nc1nc2ccccc2s1 [Example 168, Propane-1-sulfonic acid {2-[3-benzothiazol-2-yl-1-(3,3-diphenyl-propyl)-ureido]-ethyl}-amide]",1000 to 5000 nM
10,"CC(=O)N1CCN(C(=O)CCCN(CCC(c2ccccc2)c2ccccc2)C(=O)Nc2nc(-c3ccccc3)cs2)CC1 [Example 84, 1-(4-(4-acetylpiperazin-1-yl)-4-oxobutyl)-1-(3,3-diphenylpropyl)-3-(4-phenylthiazol-2-yl)urea]",< 100 nM
11,"O=C(NCCN(CCC(c1ccccc1)c1ccccc1)C(=O)Nc1nc2ccccc2s1)C1CCNCC1 [Example 166, Piperidine-4-carboxylic acid {2-[3-benzothiazol-2-yl-1-(3,3-diphenyl-propyl)-ureido]-ethyl}-amide]",< 100 nM
12,"CS(=O)(=O)Nc1ccc(-c2nc(NC(=O)N(CCN[C@H]3CCCNC3)CCC(c3ccccc3)c3ccccc3)sc2Cl)cc1 [Example 141, (S)-3-(5-chloro-4-(4-(methylsulfonamido)phenyl)thiazol-2-yl)-1-(3,3-diphenylpropyl)-1-(2-(piperidin-3-ylamino)ethyl)urea]",< 100 nM
13,"O=C(O)CNCCN(CCC(c1ccccc1)c1ccccc1)C(=O)Nc1nc2ccccc2s1 [Example 161, {2-[3-Benzothiazol-2-yl-1-(3,3-diphenyl-propyl)-ureido]-ethylamino}-acetic acid]",100 to 1000 nM
14,"O=C(NCCCCN(CCC(c1ccccc1)c1ccccc1)C(=O)Nc1nc2ccccc2s1)C1CCNCC1 [Example 127, 3-(benzo[d]thiazol-2-yl)-1-(3,3-diphenylpropyl)-1-(4-(piperidine-4-carboxamido)butyl)urea]",< 100 nM
15,"O=C(CCCN(CCC(c1ccccc1)c1ccccc1)C(=O)Nc1nc2ccccc2s1)N1CCNCC1 [Example 82, 3-(benzo[d]thiazol-2-yl)-1-(3,3-diphenylpropyl)-1-(4-oxo-4-(piperazin-1-yl)butyl)urea]",< 100 nM
16,"CC(C)(C)OC(=O)N1CCN(C(=O)CCCN(CCC(c2ccccc2)c2ccccc2)C(=O)Nc2nc3ccccc3s2)CC1 [Example 95, tert-butyl 4-(4-(3-(benzo[d]thiazol-2-yl)-1-(3,3-diphenylpropyl)ureido)butanoyl)piperazine-1-carboxylate]",100 to 1000 nM
17,"O=C(O)CCN(CCC(c1ccccc1)c1ccccc1)C(=O)Nc1nc2ccccc2s1 [Example 114, 3-(3-(benzo[d]thiazol-2-yl)-1-(3,3-diphenylpropyl)ureido)propanoic acid]",100 to 1000 nM
18,"CC(C)(C)OC(=O)NCCN(CCC(c1ccccc1)c1ccccc1)C(=O)Nc1nc2ccccc2s1 [Example 148, {2-[3-Benzothiazol-2-yl-1-(3,3-diphenyl-propyl)-ureido]-ethyl}-carbamic acid tert-butyl ester]",100 to 1000 nM
19,"O=C(O)CCN(CCC(c1ccccc1)c1ccccc1)C(=O)Nc1nc(-c2ccccc2)cs1 [Example 126, 3-(1-(3,3-diphenylpropyl)-3-(4-phenylthiazol-2-yl)ureido)propanoic acid]",1000 to 5000 nM
20,"O=C(O)CN1CCC(NCCN(CCC(c2ccccc2)c2ccccc2)C(=O)Nc2nc3ccccc3s2)CC1 [Example 162, (4-{2-[3-Benzothiazol-2-yl-1-(3,3-diphenyl-propyl)-ureido]-ethylamino}-piperidin-1-yl)acetic acid]",< 100 nM
21,"CS(=O)(=O)Nc1ccc(-c2csc(NC(=O)N(CCC(N)=O)CCC(c3ccccc3)c3ccccc3)n2)cc1 [Example 77, 1-(3-amino-3-oxopropyl)-1-(3,3-diphenylpropyl)-3-(4-(4-(methylsulfonamido)phenyl)thiazol-2-yl)urea]",< 100 nM
22,"CSCCN(CCC(c1ccccc1)c1ccccc1)C(=O)Nc1nc(-c2ccc(NS(C)(=O)=O)cc2)c(Cl)s1 [Example 137, 3-(5-chloro-4-(4-(methylsulfonamido)phenyl)thiazol-2-yl)-1-(3,3-diphenylpropyl)-1-(2-(methylthio)ethyl)urea]",< 100 nM
23,"O=C(Nc1nc2ccccc2s1)N(CCNC1CCSCC1)CCC(c1ccccc1)c1ccccc1 [Example 155, 3-Benzothiazol-2-yl-1-(3,3-diphenyl-propyl)-1-[2-(tetrahydro-thiopyran-4-ylamino)ethyl]-urea]",1000 to 5000 nM
24,"O=C(CCCN(CCC(c1ccccc1)c1ccccc1)C(=O)Nc1nc2ccccc2s1)N1CCCCC1 [Example 105, 3-(benzo[d]thiazol-2-yl)-1-(3,3-diphenylpropyl)-1-(4-oxo-4-(piperidin-1-yl)butyl)urea]",100 to 1000 nM
25,"O=C(O)CCN(CCC(c1ccccc1)c1ccccc1)C(=O)Nc1nc(-c2ccccc2)c(Cl)s1 [Example 121, 3-(3-(5-chloro-4-phenylthiazol-2-yl)-1-(3,3-diphenylpropyl)ureido)propanoic acid]",1000 to 5000 nM
